Paper PMC7217877, “N-AS-triggered SPMs are direct regulators of microglia in a model of Alzheimer’s disease” (Nature Communications, 2020)
Where “and” joins values, the source holds several entries; their conditions need not be identical. Equal entries are not always repeated.

How the values were obtained:
APP/PS1 mice [1] = test: cerebral amyloid angiopathy (CAA) quantification (Fig 6f); assay type: in vivo, mouse; settings: Cortex; APP/PS1 + N-AS; individual values
Procedure: Thioflavin S (Sigma-Aldrich) staining was carried out according to previously described procedures. We used 6E10 (mouse, 1:100, Signet, SIG39300), anti-20G10 (mouse, 1:1000, provided by D. R. Howlett, GlaxoSmithKline, Harlow, Essex, UK) for Aβ42, anti-G30 (rabbit, 1:1000, provided by D. R. Howlett) for Aβ40, SMA (mouse, 1:400, Sigma-Aldrich, A2547), AT8 (mouse, 1:500, Thermo Fisher Scientific, MN1020), Caspase-3 (mouse, 1:200, Novus Biologicals, NB100-56708), ac-S565 (rabbit, 1:100), COX2 (mouse, 1:250, Thermo Fisher Scientific, 35-8200), Iba1 (rabbit, 1:500, Wako, 019-19941 and goat, Abcam, ab5076), NeuN (mouse, 1:500, Millipore, MAB177), GFAP (rabbit, 1:500, Dako, N1506 and chicken, 1:500, Abcam, ab4674), and Lamp1 (mouse, 1:200, Abcam, ab24170). The sections were analyzed with a laser-scanning confocal microscope (FV3000; Olympus) or with a BX51 microscope (Olympus). MetaMorph software (Molecular Devices) was used to quantification. Three-dimensional reconstruction of microglia was recorded and analyzed using IMARIS software (Bitplane)[11]. For the analysis of age-dependent microglial COX2^+ CX3CR1^+ cells in WT and APP/PS1 mice, COX2 (rabbit, 1:100, Abcam, ab15191) and CX3CR1 (mouse, 1:100, BioLegend, 149008) antibody were used and the images were acquired on Alexa 488 and APC Channel with performed using Operetta CLS and Analysis Software 4.5 (Perkin-Elmer). […]

APP/PS1 mice [2] = test: immunofluorescence of 6E10, Aβ40 and Aβ42 (Fig 6b-d); assay type: in vivo, mouse; settings: for 6E10 immunofluorescence quantification (Figure 6b) / Aβ40 immunofluorescence quantification (Figure 6c) / Aβ42 immunofluorescence quantification (Figure 6d): APP/PS1 + N-AS, individual animals
Procedure: Thioflavin S (Sigma-Aldrich) staining was carried out according to previously described procedures. We used 6E10 (mouse, 1:100, Signet, SIG39300), anti-20G10 (mouse, 1:1000, provided by D. R. Howlett, GlaxoSmithKline, Harlow, Essex, UK) for Aβ42, anti-G30 (rabbit, 1:1000, provided by D. R. Howlett) for Aβ40, SMA (mouse, 1:400, Sigma-Aldrich, A2547), AT8 (mouse, 1:500, Thermo Fisher Scientific, MN1020), Caspase-3 (mouse, 1:200, Novus Biologicals, NB100-56708), ac-S565 (rabbit, 1:100), COX2 (mouse, 1:250, Thermo Fisher Scientific, 35-8200), Iba1 (rabbit, 1:500, Wako, 019-19941 and goat, Abcam, ab5076), NeuN (mouse, 1:500, Millipore, MAB177), GFAP (rabbit, 1:500, Dako, N1506 and chicken, 1:500, Abcam, ab4674), and Lamp1 (mouse, 1:200, Abcam, ab24170). The sections were analyzed with a laser-scanning confocal microscope (FV3000; Olympus) or with a BX51 microscope (Olympus). MetaMorph software (Molecular Devices) was used to quantification. Three-dimensional reconstruction of microglia was recorded and analyzed using IMARIS software (Bitplane)[11]. For the analysis of age-dependent microglial COX2^+ CX3CR1^+ cells in WT and APP/PS1 mice, COX2 (rabbit, 1:100, Abcam, ab15191) and CX3CR1 (mouse, 1:100, BioLegend, 149008) antibody were used and the images were acquired on Alexa 488 and APC Channel with performed using Operetta CLS and Analysis Software 4.5 (Perkin-Elmer).
Transgenic mouse lines over-expressing the hAPP695swe (APP) and presenilin-1M146V (PS1) mutations were originated from GlaxoSmithKline (Harlow, UK)[32] and maintained as described previously. We purchased 5×FAD mice from Jackson Labs (Stock number. 34840-JAX). Because APP/PS1 and 5xFAD mice show sex differences in disease progression, we used only male mice. To examine possible therapeutic effect of N-AS and aspirin in APP/PS1 mice, the N-AS (30 mg kg^−1, Sigma-Aldrich, 01912) was injected daily s.c. for 8 weeks to 7-months-old APP/PS1 mice until the age of 9 months, and aspirin (2 mg kg^−1, Sigma-Aldrich, A5376)[33] was administrated orally to 7-months-old APP/PS1 mice for 8 weeks. Also, to confirm possible therapeutic efficacy of N-AS in 5×FAD, the N-AS (30 mg kg^−1, Sigma-Aldrich, 01912) was injected daily s.c. for 4 weeks to 3-months-old 5×FAD mice until the age of 4 months. Block randomization method was used to allocate the animals to experimental groups. To eliminate the bias, we were blinded in experimental progress such as data collection and data analysis. Mice were housed at temperature of 22 °C and a 12 h day/12 h night cycle with free access to tap water and food pellets. All protocols were approved by the Kyungpook National University Institutional Animal Care and Use Committee.

In the case of `CCCCCCCCCCCCC/C=C/[C@@H](O)[C@H](CO)NC(C)=O` [N-AS, N-((2S,3R,E)-1,3-Dihydroxyoctadec-4-en-2-yl)acetamide], the “amyloid angiopathy (CAA) quantification” value (APP/PS1 mice [1]) is reported as 0.11 and 0.15 and 0.12 and 0.1 and 0.17 and 0.13, the “6E10 immunofluorescence quantification (Figure 6b)” value (APP/PS1 mice [2]; Cortex) is reported as 0.0608 and 0.09453 and 0.05939 and 0.02037 and 0.005591 and 0.04313 and 0.04886 and 0.06655 and the “Aβ40 immunofluorescence quantification (Figure 6c)” value (APP/PS1 mice [2]; Cortex) is reported as 0.06419 and 0.04296 and 0.0589 and 0.2298 and 0.117 and 0.122 and 0.04359 and 0.05854. For the same compound, the “Aβ42 immunofluorescence quantification (Figure 6d)” value (APP/PS1 mice [2]; Cortex) was 0.1554 and 0.215 and 0.1788 and 0.1001 and 0.1191 and 0.09457 and 0.1824 and 0.177, the “6E10 immunofluorescence quantification (Figure 6b)” value (APP/PS1 mice [2]; Hippocampus) was 0.04847 and 0.07321 and 0.02799 and 0.04609 and 0.00742 and 0.009448 and 0.05438 and 0.09253 and the “Aβ40 immunofluorescence quantification (Figure 6c)” value (APP/PS1 mice [2]; Hippocampus) was 0.07041 and 0.04924 and 0.02685 and 0.04786 and 0.1308 and 0.07762 and 0.09677 and 0.1893 and 0.1045. The “Aβ42 immunofluorescence quantification (Figure 6d)” value (APP/PS1 mice [2]; Hippocampus) was 0.2679 and 0.3316 and 0.148 and 0.1454 and 0.2815 and 0.3706 and 0.09586 and 0.279 and 0.395 and the “Aβ levels by immunofluorescence of 6E10, Aβ40, Aβ42” value (APP/PS1 mice [2]; N-AS vs vehicle APP/PS1) was “significantly lower Aβ levels”.
